Laboratory results as given in patent US9493446B2, “Orexin receptor antagonists which are [ortho bi-(hetero-)aryl]-[2-(meta bi-(hetero-)aryl)-pyrrolidin-1-yl]-methanone derivatives” (Actelion Pharmaceuticals Ltd, priority 2012, dated 2016).
Like-named read-outs stand apart in the source and are kept apart here.

Key:
human orexin-2 receptor = human orexin-2 receptor (Homo sapiens (Human), UniProt O43614); assay: Intracellular calcium measurement (FLIPR), CHO cells expressing human orexin-2 receptor, 3 nM orexin-A; assay type: cell-based; conditions: read-out: IC50 OX2
Summary of the method: (§1)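 Fluo-4 AM-loaded CHO cells; antagonist preincubation 120 min, then 3 nM orexin-A (final) in HBSS/0.1% BSA/20 mM HEPES. FLIPR read at 1 s intervals; peak height vs. agonist-plus-vehicle control → IC50.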

orexin-1 = orexin-1 (Homo sapiens (Human), UniProt O43613); assay: Intracellular calcium measurement (FLIPR), CHO cells expressing human orexin-1 receptor, 3 nM orexin-A; assay type: cell-based; conditions: read-out: IC50 OX1
Summary of the method: as §1

[1] = CHO cells expressing human orexin-2 receptor, FLIPR, 3 nM orexin-A, geometric mean if determined several times
[2] = CHO cells expressing human orexin-1 receptor, FLIPR, 3 nM orexin-A, geometric mean if determined several times

Sequence of human orexin-2 receptor (O43614 whole entry): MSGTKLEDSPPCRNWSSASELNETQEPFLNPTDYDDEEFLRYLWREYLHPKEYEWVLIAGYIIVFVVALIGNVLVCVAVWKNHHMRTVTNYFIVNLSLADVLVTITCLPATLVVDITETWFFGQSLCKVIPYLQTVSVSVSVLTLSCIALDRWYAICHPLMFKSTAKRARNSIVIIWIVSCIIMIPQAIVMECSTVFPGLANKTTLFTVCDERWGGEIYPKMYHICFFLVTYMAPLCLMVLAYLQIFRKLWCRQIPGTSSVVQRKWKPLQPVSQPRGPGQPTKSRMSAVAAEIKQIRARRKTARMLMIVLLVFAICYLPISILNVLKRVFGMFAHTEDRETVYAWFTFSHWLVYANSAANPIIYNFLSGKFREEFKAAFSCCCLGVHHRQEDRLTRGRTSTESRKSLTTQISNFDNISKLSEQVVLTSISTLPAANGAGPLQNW
Sequence of orexin-1 (O43613 whole entry): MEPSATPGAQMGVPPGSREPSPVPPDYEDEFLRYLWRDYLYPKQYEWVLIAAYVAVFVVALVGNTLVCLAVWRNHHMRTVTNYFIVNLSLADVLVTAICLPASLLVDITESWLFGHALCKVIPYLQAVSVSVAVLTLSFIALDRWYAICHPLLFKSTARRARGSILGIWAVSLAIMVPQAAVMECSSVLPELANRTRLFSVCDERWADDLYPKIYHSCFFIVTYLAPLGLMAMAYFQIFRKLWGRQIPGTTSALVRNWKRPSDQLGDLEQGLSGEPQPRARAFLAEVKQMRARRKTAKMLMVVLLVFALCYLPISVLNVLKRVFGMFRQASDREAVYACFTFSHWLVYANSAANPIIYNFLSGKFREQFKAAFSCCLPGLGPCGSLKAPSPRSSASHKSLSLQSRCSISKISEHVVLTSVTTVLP

Row | Compound | IC50 (human orexin-2 receptor; [1]) [nM] | IC50 (orexin-1; [2]) [nM] | IC50 (orexin-1) [nM] | IC50 (human orexin-2 receptor) [nM]
1 | Cc1ccc(-n2nccn2)c(C(=O)N2CCC[C@H]2c2nc(-c3cc(C)ccc3C)no2)c1 [compound 84, {(S)-2-[3-(2,5-Dimethyl-phenyl)-[1,2,4]oxadiazol-5-yl]-pyrrolidin-1-yl}-(5-methyl-2-[1,2,3]triazol-2-yl-phenyl)-methanone] | 8 | 63 |  | 
2 | Cc1c(Cl)cccc1-c1noc([C@@H]2CCCN2C(=O)c2cccc(F)c2-n2cccn2)n1 [compound 113] | 146 | 1200 |  | 
3 | Cc1c(Cl)cccc1-c1noc([C@@H]2CCCN2C(=O)c2ccc(F)cc2-n2cccn2)n1 [compound 111] | 261 | 1150 |  | 
4 | COc1cc(C(=O)N2CCC[C@H]2c2noc(-c3cccc(OC)c3C)n2)c(-n2nccn2)cc1C [compound 358, {(S)-2-[5-(3-Methoxy-2-methyl-phenyl)-[1,2,4]oxadiazol-3-yl]-pyrrolidin-1-yl}-(5-methoxy-4-methyl-2-[1,2,3]triazol-2-yl-phenyl)-methanone] | 10 | 128 |  | 
5 | Cc1ccc(-n2nccn2)c(C(=O)N2CCC[C@H]2c2nc(-c3cn(C)c4ccccc34)no2)c1 [compound 57, {(S)-2-[3-(1-Methyl-1H-indol-3-yl)-[1,2,4]oxadiazol-5-yl]-pyrrolidin-1-yl}-(5-methyl-2-[1,2,3]triazol-2-yl-phenyl)-methanone] | 4 | 7 |  | 
6 | Cc1ccc(-c2ccccn2)c(C(=O)N2CCC[C@H]2c2nc(-c3ccccc3OC(F)(F)F)no2)c1 [compound 138, (5-Methyl-2-pyridin-2-yl-phenyl)-{(S)-2-[3-(2-trifluoromethoxy-phenyl)-[1,2,4]oxadiazol-5-yl]-pyrrolidin-1-yl}-methanone] | 30 | 49 |  | 
7 | Cc1ccc(-n2nccn2)c(C(=O)N2CCC[C@H]2c2nc(-c3cccnc3Cl)no2)c1 [compound 28] | 33 |  | 2610 | 
8 | Cc1c(F)cccc1-c1noc([C@@H]2CCCN2C(=O)c2cc(Cl)ccc2-n2nccn2)n1 [compound 245] | 21 |  | 262 | 
9 | COc1ccccc1-c1nnc([C@@H]2CCCN2C(=O)c2ccc(C)cc2-n2nccn2)[nH]1 [compound 471, {(S)-2-[5-(2-Methoxy-phenyl)-4H-[1,2,4]triazol-3-yl]-pyrrolidin-1-yl}-(4-methyl-2-[1,2,3]triazol-2-yl-phenyl)-methanone] | 127 | 49 |  | 
10 | Cc1ccc(-n2nccn2)c(C(=O)N2CCC[C@H]2c2nc(-c3ccccc3OC(F)(F)F)co2)c1 [Example 460, (5-Methyl-2-[1,2,3]triazol-2-yl-phenyl)-{(S)-2-[4-(2-trifluoromethoxy-phenyl)-oxazol-2-yl]-pyrrolidin-1-yl}-methanone] | 16 | 10 |  | 
11 | Cc1ccc(-n2nccn2)c(C(=O)N2CCC[C@H]2c2nc(-c3cccc4ccn(C)c34)no2)c1 [compound 77, {(S)-2-[3-(1-Methyl-1H-indol-7-yl)-[1,2,4]oxadiazol-5-yl]-pyrrolidin-1-yl}-(5-methyl-2-[1,2,3]triazol-2-yl-phenyl)-methanone] | 8 | 52 |  | 
12 | CCOc1ncccc1-c1nnc([C@@H]2CCCN2C(=O)c2cc(OC)c(Cl)cc2-n2nccn2)[nH]1 [compound 478] | 11 | 27 |  | 
13 | Cc1cc(C(=O)N2CCC[C@H]2c2nc(-c3ccccc3OC(F)F)no2)c(-n2nccn2)cc1C [compound 188, {(S)-2-[3-(2-Difluoromethoxy-phenyl)-[1,2,4]oxadiazol-5-yl]-pyrrolidin-1-yl}-(4,5-dimethyl-2-[1,2,3]triazol-2-yl-phenyl)-methanone] | 3 | 20 |  | 
14 | COc1ccc(-n2nccn2)c(C(=O)N2CCC[C@H]2c2nc(-c3ccccc3OC(F)(F)F)no2)c1F [compound 144, (2-Fluoro-3-methoxy-6-[1,2,3]triazol-2-yl-phenyl)-{(S)-2-[3-(2-trifluoromethoxy-phenyl)-[1,2,4]oxadiazol-5-yl]-pyrrolidin-1-yl}-methanone] | 83 | 26 |  | 
15 | CCOc1ncccc1-c1noc([C@@H]2CCCN2C(=O)c2cc(Cl)c(C)cc2-n2nccn2)n1 [compound 301] | 6 | 19 |  | 
16 | COc1cccc(F)c1-c1noc([C@@H]2CCCN2C(=O)c2cc(C)ccc2-n2nccn2)n1 [compound 72, {(S)-2-[3-(2-Fluoro-6-methoxy-phenyl)-[1,2,4]oxadiazol-5-yl]-pyrrolidin-1-yl}-(5-methyl-2-[1,2,3]triazol-2-yl-phenyl)-methanone] | 57 | 901 |  | 
17 | Furan-3-yl-[(S)-2-(3-o-tolyl-[1,2,4]oxadiazol-5-yl)-pyrrolidin-1-yl]-methanone [Reference compound 6, reference compound] | 27 |  | 21 | 

Row | Compound | IC50 (human orexin-2 receptor; [1]) [nM] | IC50 (orexin-1; [2]) [nM] | IC50 (orexin-1) [nM] | IC50 (human orexin-2 receptor) [nM]
18 | Cc1ccc(C(=O)N2CCC[C@H]2c2nc(-c3ccccc3OC(F)(F)F)no2)c(-n2nccn2)c1C [compound 271, (3,4-Dimethyl-2-[1,2,3]triazol-2-yl-phenyl)-{(S)-2-[3-(2-trifluoromethoxy-phenyl)-[1,2,4]oxadiazol-5-yl]-pyrrolidin-1-yl}-methanone] | 189 | 69 |  | 
19 | CCOc1ncccc1-c1noc([C@@H]2CCCN2C(=O)c2cc(OC)c(C)cc2-n2nccn2)n1 [compound 215, {(S)-2-[3-(2-Ethoxy-pyridin-3-yl)-[1,2,4]oxadiazol-5-yl]-pyrrolidin-1-yl}-(5-methoxy-4-methyl-2-[1,2,3]triazol-2-yl-phenyl)-methanone] | 3 | 18 |  | 
20 | COc1cc(C(=O)N2CCC[C@H]2c2noc(-c3ccccc3OC(F)(F)F)n2)c(-n2nccn2)cc1Cl [compound 375] | 6 | 67 |  | 
21 | Cc1ccc(-n2nccn2)c(C(=O)N2CCC[C@H]2c2nc(-c3cccc(Cl)c3C)no2)c1 [compound 23] | 7 | 40 |  | 
22 | Cc1c(F)cccc1-c1noc([C@@H]2CCCN2C(=O)c2ccccc2-n2nccn2)n1 [compound 244, {(S)-2-[3-(3-Fluoro-2-methyl-phenyl)-[1,2,4]oxadiazol-5-yl]-pyrrolidin-1-yl}-(2-[1,2,3]triazol-2-yl-phenyl)-methanone] | 18 | 306 |  | 
23 | COc1ccc(C)cc1-c1nc([C@@H]2CCCN2C(=O)c2cc(C)ccc2-n2nccn2)no1 [compound 411, {(S)-2-[5-(2-Methoxy-5-methyl-phenyl)-[1,2,4]oxadiazol-3-yl]-pyrrolidin-1-yl}-(5-methyl-2-[1,2,3]triazol-2-yl-phenyl)-methanone] | 9 | 99 |  | 
24 | Cc1ccc(-n2nccn2)c(C(=O)N2CCC[C@H]2c2nc(-c3cccc(Cl)c3C)no2)c1F [compound 266] |  |  | 115 | 14
25 | COc1c(F)cccc1-c1noc([C@@H]2CCCN2C(=O)c2ccc(C(F)(F)F)cc2-n2nccn2)n1 [compound 205, {(S)-2-[3-(3-Fluoro-2-methoxy-phenyl)-[1,2,4]oxadiazol-5-yl]-pyrrolidin-1-yl}-(2-[1,2,3]triazol-2-yl-4-trifluoromethyl-phenyl)-methanone] | 43 | 340 |  | 
26 | CCOc1ncccc1-c1cc([C@@H]2CCCN2C(=O)c2cc(C)ccc2-n2nccn2)on1 [compound 428, {(S)-2-[3-(2-Ethoxy-pyridin-3-yl)-isoxazol-5-yl]-pyrrolidin-1-yl}-(5-methyl-2-[1,2,3]triazol-2-yl-phenyl)-methanone] | 28 | 67 |  | 
27 | Cc1ccc(-n2nccn2)c(C(=O)N2CCC[C@H]2c2cnc(-c3ccccc3)[nH]2)c1 [compound 519, (5-Methyl-2-[1,2,3]triazol-2-yl-phenyl)-[(S)-2-(2-phenyl-3H-imidazol-4-yl)-pyrrolidin-1-yl]-methanone] | 720 | 1390 |  | 
28 | Cc1ccc(-n2nccn2)c(C(=O)N2CCC[C@@]2(C)c2nnc(-c3ccccc3OC(F)(F)F)[nH]2)c1 [Example 542, (5-Methyl-2-[1,2,3]triazol-2-yl-phenyl)-{(S)-2-methyl-2-[5-(2-trifluoromethoxy-phenyl)-4H-[1,2,4]triazol-3-yl]-pyrrolidin-1-yl}-methanone] | 28 | 33 |  | 
29 | Cc1ccc(-n2cccn2)c(C(=O)N2CCC[C@H]2c2nc(-c3cccc(Cl)c3C)no2)n1 [compound 109] |  |  | 976 | 199
30 | COc1cccc(-c2nc([C@@H]3CCCN3C(=O)c3ccc(C)cc3-n3nccn3)no2)c1C [compound 364, {(S)-2-[5-(3-Methoxy-2-methyl-phenyl)-[1,2,4]oxadiazol-3-yl]-pyrrolidin-1-yl}-(4-methyl-2-[1,2,3]triazol-2-yl-phenyl)-methanone] | 157 | 265 |  | 
31 | Cc1ccc(-n2nccn2)c(C(=O)N2CCC[C@H]2c2cc(-c3ccccc3OC(F)(F)F)on2)c1 [compound 434, (5-Methyl-2-[1,2,3]triazol-2-yl-phenyl)-{(S)-2-[5-(2-trifluoromethoxy-phenyl)-isoxazol-3-yl]-pyrrolidin-1-yl}-methanone] | 5 | 21 |  | 
32 | COc1cc(C(=O)N2CCC[C@H]2c2nc(-c3ccccc3OC(F)(F)F)no2)c(-c2ncccn2)cc1C [compound 285, (5-Methoxy-4-methyl-2-pyrimidin-2-yl-phenyl)-{(S)-2-[3-(2-trifluoromethoxy-phenyl)-[1,2,4]oxadiazol-5-yl]-pyrrolidin-1-yl}-methanone] | 56 | 90 |  | 
33 | O=C(c1ccccc1-c1ccccc1)N1CCC[C@H]1c1nnc(-c2ccccc2OC(F)(F)F)[nH]1 [compound 508, Biphenyl-2-yl-{(S)-2-[5-(2-trifluoromethoxy-phenyl)-4H-[1,2,4]triazol-3-yl]-pyrrolidin-1-yl}-methanone] | 84 | 239 |  | 
34 | Cc1c(Cl)cccc1-c1noc([C@@H]2CCCN2C(=O)c2ccc(Cl)cc2-n2nccn2)n1 [compound 121] | 15 |  | 145 | 
